Results: paper PMC7139703, “Thiopurine Derivative-Induced Fpg/Nei DNA Glycosylase Inhibition: Structural, Dynamic and Functional Insights” (International Journal of Molecular Sciences, 2020)
Read-outs that look alike come from different tables or passages of the source.

Legend:
mvNei1 = target: T1, mvNei1 (Acanthamoeba polyphaga mimivirus, UniProt Q5UQ00); test: mvNei1 DNA glycosylase/AP lyase activity assay on DHU:G 24-mer duplex; assay type: biochemical; conditions: for effect on mvNei1 catalytic activity: 0.2 mM compound
T1 construct: 6His (C); made in house; host or cells: E. coli Rosetta2 (DE3)
T1 sequence (Q5UQ00 whole entry): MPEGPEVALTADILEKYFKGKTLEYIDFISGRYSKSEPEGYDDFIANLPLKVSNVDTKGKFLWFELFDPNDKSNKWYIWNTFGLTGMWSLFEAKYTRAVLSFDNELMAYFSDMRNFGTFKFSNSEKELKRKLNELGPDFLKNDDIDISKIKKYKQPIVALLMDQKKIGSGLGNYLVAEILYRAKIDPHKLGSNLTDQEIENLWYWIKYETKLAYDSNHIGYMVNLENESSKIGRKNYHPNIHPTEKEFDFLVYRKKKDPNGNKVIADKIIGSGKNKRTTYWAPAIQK
Experimental: Figure 4 Comparative analysis of the effect of 2TX and TXn on Fpg/Nei DNA glycosylases. Enzyme activities were measured as described in the Figure 1 legend using […] of a 5′-[^32P]-24-mer DNA duplex containing either an 8-oxoG opposite C for LlFpg or a […] (DHU) opposite G for hNeil1 and mvNei1. The DNA probe was incubated with the indicated protein concentration and 0.2 mM TXn compounds in the presence or absence of 1 mM dithiothreitol (DTT) and TCEP (a representative experiment is illustrated by the upper histograms). The DNA probe for EMSA was 0.1 nM of 5′-[^32P]-[…] DNA duplex containing THF with LlFpg and mvNei1 (bottom panels: gel autoradiography) with the indicated conditions and as described in ‘Materials and Methods’.
Fpg, hNeil1 and mvNei1 are bifunctional DNA glycosylases associated with concerted DNA glycosylase activity (cleavage of the N-glycosidic bond between the base lesion and the C1′ of the deoxyribose) and AP lyase activity that comprises the successive cleavage of the phosphodiester bonds at the 3′ and 5′ of the resulting abasic (AP) site, respectively (β, δ-elimination). Thus, AP sites that result from the excision of the damaged base are quantitatively converted into one nucleoside gap by these enzymes. The DNA glycosylase/AP lyase activity of each enzyme was measured by incubating 20 nM of 24-mer DNA duplexes ([OG:C] and [DHU:G] for Fpg and hNeil1/mvNei1, respectively) 5′-labeling on the damaged strand (see above) with 2 nM of Fpg, or mvNei1 for 15 min or, with 20 nM of hNeil1 for 30 min at 37 °C in 10 mM Tris-HCl, pH 7.6, 150 mM NaCl, 1 mM EDTA, 0.1 mg/mL BSA and 8% DMSO. The reaction was stopped by the addition of 1 volume of formamide loading buffer (96% formamide, 20 mM Tris/HCl pH 8.0 and 2 mM Na2EDTA), heated at 80 °C for 2 min and then analyzed by 20% Urea-PAGE, as previously described. […] Under these conditions, only 50% of the substrate is converted to the cleavage product (limiting enzyme concentration conditions). For an initial evaluation of the inhibitory effect, 40 µM of 2TX/TXn was used. The thio-compound was added to the reaction mixture before the final addition of the enzyme (competition condition). For the best identified inhibitors, a dose-response curve was generated and IC50^A determined (Figure 1 and Table 1).

LlFpg/DNA complex C2 = target: T2, LlFpg/DNA complex C2 (Lactococcus lactis subsp. cremoris, UniProt P42371); test: EMSA, Fpg DNA binding to 14-mer [THF:C] duplex, non-specific complex C2 (Fpg/DNA 2/1); conditions: for effect on stability of preformed complex C2 in the presence of TCEP: [1/1] molar ratio TCEP/compound (1 mM each), Figure S6; for number of TXn equivalents per one protein equivalent for 50% inhibition of DNA binding activity, C2: value in parentheses, 10 nM Fpg
T2 construct: made in house; host or cells: E. coli BH540 (fpg defective)
T2 sequence (P42371 2-273 limits assumed): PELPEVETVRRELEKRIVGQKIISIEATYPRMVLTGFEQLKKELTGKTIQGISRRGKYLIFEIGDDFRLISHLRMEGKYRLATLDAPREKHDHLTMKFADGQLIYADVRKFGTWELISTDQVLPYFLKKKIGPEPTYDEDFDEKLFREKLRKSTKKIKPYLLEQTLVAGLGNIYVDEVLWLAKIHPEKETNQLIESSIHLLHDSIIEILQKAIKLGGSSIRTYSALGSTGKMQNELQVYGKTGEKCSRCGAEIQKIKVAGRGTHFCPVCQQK
Source text: To complement this study, we examined the effect of TXn on the binding of Fpg to a short DNA duplex containing a tetrahydrofuran (THF), a non-cleavable AP site analog. The enzyme specifically recognizes THF and forms a stable abortive complex with DNA [18, 34, 35, 36]. […] A representative titration experiment (with and without TCEP) of the 14-mer [THF:C] Fpg formed two stable complexes with this short DNA probe that were easily observed by EMSA: a high-affinity complex C1 corresponding to the lesion recognition complex (LRC), with nanomolar affinity, and a complex C2 only observed at higher Fpg concentrations. C2 results in C1 titration by a second Fpg molecule. This finding illustrates that the crystal structure of Fpg bound to 8-oxoG-carbanucleotide-containing DNA [38] (Figure S5). The stability of each preformed complex was then examined by EMSA in the presence of 2TX or TXn. […] The enzyme inactivation mediated by 2TX through ZnF oxidation that directly affects the DNA binding properties of the enzyme is also in agreement with this last observation.
The inhibitor concentrations that induced the loss of the half-maximal binding (IC50app^B) were determined from these curves and are reported in Table 1. IC50app^B compared well with IC50app^A. As observed above for the enzyme activity, strong reducers, such as TCEP, abolished the negative effects of 2TX and TXn on Fpg/DNA complex stability and formation. These findings again indicate that inhibition by thio-compounds essentially relies on the oxidation of the Fpg ZnF (for an example, see experiment with TX19, Figure S4). […] This troubling and unexpected observation led us to evaluate this effect with the TXn small library compounds. To prevent a side effect due to a possible partial reduction by TCEP, we performed EMSA in the presence of a 6.7-fold molar excess of TCEP with respect to 2TX and TXn after complex formation (Figure 3).
Figure 3 Impact of TXn on the non-specific Fpg/DNA complex C2 stability in highly reducing conditions. EMSA was performed as described in the ‘Material & Methods’, except TCEP was added at a 2 mM final concentration in each binding assay. (a) Representative experiment at 0.3 mM 2TX and more efficient TXn; (b) Dose-response with the best TXn. Upper panel: Representative EMSA experiment with TX10. Lower panel: Dose-response curves with the indicated TXn.
The DNA binding activity was measured using EMSA [37]. Briefly, 0.1 nM of the 5′-labeled 14-mer [THF:C] (see above) was incubated with the enzyme at 4 °C for 30 min in 25 mM HEPES/NaOH (pH 7.5), 150 mM NaCl, 5% glycerol, 0.1 mg/mL BSA and 8% DMSO. The incubation mixture was then loaded onto a native 10% polyacrylamide gel (Acryl/Bis 19/1) and electrophoresed at 25 V/cm for 90 min at 4 °C. After electrophoresis, the gels were dried and exposed overnight for autoradiography using a Typhoon imager and quantified with ImageQuant software. To evaluate the inhibitor effect of 2TX/TXn on the DNA binding activity of each Fpg/Nei enzyme, we first determined the experimental conditions required to bind 50% of the DNA probes without an inhibitor in the presence of 8% DMSO (limiting enzyme concentration). Under these conditions, we obtained the half-maximal DNA binding 0.25, 7 and 5 nM of Fpg, hNeil1 and mvNei1. We used this limited enzyme concentrations to evaluate the inhibitor effect of 2TX/TXn on the enzyme DNA binding activity. This effect was determined by the addition of the thio-compound in the pre-equilibrium mixture of the enzyme and DNA probe (30 min) and incubated for an additional 30 min at 4 °C. For the best inhibitors of Fpg, a dose-response curve was established from at least three independent experiments and the IC50 was determined (IC50^B, Table 1). […]
Rieux et al. Thiopurine derivative-induced Fpg/Nei DNA glycosylase inhibition:
structural, dynamic and functional insights
Figure S6. […]

[1] = catalytic activity at 37 °C, compound stock in DMSO, DHU:G 24-mer, read-out: IC50app^A (Fpg/Nei enzyme catalysis) mvNEI1

O=c1[nH]c(=S)[nH]c2nc[nH]c12 [Compound 2TX, 2-thioxanthine, reference compound]
effect on mvNei1 catalytic activity (mvNei1; Figure 4): did not significantly affect
IC50 (mvNei1; [1]): > 500 µM
effect on stability of preformed complex C2 in the presence of TCEP (LlFpg/DNA complex C2): moderate effect
number of TXn equivalents per one protein equivalent for 50% inhibition of DNA binding activity, C2 (LlFpg/DNA complex C2): NA (9.7)

FC(F)(F)c1nc(S)c2nc[nH]c2n1 [TX13, 2-trifluoromethyl-6-thiopurine]
IC50 (mvNei1; [1]): > 500 µM
effect on stability of preformed complex C2 in the presence of TCEP (LlFpg/DNA complex C2): strongly destabilized
number of TXn equivalents per one protein equivalent for 50% inhibition of DNA binding activity, C2 (LlFpg/DNA complex C2): NA (1.3)

O=c1[nH]c2[nH]c(=S)[nH]c(=O)c2[nH]1 [TX14, 2-thio-6,8-dioxopurine]
IC50 (mvNei1): > 500 µM
effect on stability of preformed complex C2 in the presence of TCEP (LlFpg/DNA complex C2): moderate effect
number of TXn equivalents per one protein equivalent for 50% inhibition of DNA binding activity, C2 (LlFpg/DNA complex C2): NA (2.8)

O=c1[nH]c(=S)[nH]c2[nH]c(=S)[nH]c12 [TX19]
effect on mvNei1 catalytic activity (mvNei1; Figure 4): apparent inhibitory effects
inhibition of mvNei1 DNA binding and catalytic activities in the presence of TCEP (mvNei1; 1 mM TCEP (DTT to a lesser extent), Figure 4): suppressed
IC50 (mvNei1; [1]): 124 ± 4 µM
effect on stability of preformed complex C2 in the presence of TCEP (LlFpg/DNA complex C2): moderate effect
number of TXn equivalents per one protein equivalent for 50% inhibition of DNA binding activity, C2 (LlFpg/DNA complex C2): NA (2)

Nc1ncnc2[nH]c(S)nc12 [TX27]
IC50 (mvNei1): 277 ± 18 µM
effect on stability of preformed complex C2 in the presence of TCEP (LlFpg/DNA complex C2): strongly destabilized
number of TXn equivalents per one protein equivalent for 50% inhibition of DNA binding activity, C2 (LlFpg/DNA complex C2): NA (4)
